Measurements published in paper PMC4569708, “Synergistic activation of human pregnane X receptor by binary cocktails of pharmaceutical and environmental compounds” (Nature Communications, 2015).

T1: PXR (Homo sapiens, UniProt O75469)
T1 sequence (O75469 107-434): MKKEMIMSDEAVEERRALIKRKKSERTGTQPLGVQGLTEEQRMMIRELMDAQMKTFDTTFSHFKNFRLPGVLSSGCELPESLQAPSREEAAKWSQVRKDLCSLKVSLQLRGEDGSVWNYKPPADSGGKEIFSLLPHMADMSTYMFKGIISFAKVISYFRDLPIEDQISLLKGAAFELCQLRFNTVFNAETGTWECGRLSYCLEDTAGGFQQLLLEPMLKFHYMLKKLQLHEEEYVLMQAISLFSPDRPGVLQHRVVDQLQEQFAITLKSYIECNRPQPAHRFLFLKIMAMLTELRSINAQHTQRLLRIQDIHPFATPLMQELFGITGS

T2: PXR LBD (Homo sapiens, UniProt O75469)
T2 construct: Purified PXR(130-434)-SRC-1 was dialysed overnight; His6 (N); made in house; host or cells: E. coli BL21(DE3)
T2 sequence (O75469 with tags, fused parts or gaps limits assumed): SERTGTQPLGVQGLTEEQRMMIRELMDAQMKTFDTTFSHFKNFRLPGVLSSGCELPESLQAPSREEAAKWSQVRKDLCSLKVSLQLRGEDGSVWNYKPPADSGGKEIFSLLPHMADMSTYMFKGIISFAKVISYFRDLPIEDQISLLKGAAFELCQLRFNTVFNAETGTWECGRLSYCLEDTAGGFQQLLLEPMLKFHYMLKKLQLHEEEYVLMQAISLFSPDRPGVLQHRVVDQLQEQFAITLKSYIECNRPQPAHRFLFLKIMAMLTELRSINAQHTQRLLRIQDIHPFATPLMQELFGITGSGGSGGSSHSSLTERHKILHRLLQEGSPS

T3: fluorescein-labelled NR interaction domain (NID) of SRC-1 (residues 570-780) (UniProt Q15788 570-780, fluorescein at the C-terminus (cys-fluor added on intein cleavage))
T3 chain: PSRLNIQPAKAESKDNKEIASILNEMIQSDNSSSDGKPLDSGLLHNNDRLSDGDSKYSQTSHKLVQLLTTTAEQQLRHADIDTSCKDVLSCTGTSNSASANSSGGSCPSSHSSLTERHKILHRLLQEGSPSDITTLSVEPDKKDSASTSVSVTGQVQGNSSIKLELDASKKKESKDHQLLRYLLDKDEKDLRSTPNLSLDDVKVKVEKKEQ

B1: PXR/RXR LBD heterodimer (complex)
chain 1: SERTGTQPLGVQGLTEEQRMMIRELMDAQMKTFDTTFSHFKNFRLPGVLSSGCELPESLQAPSREEAAKWSQVRKDLCSLKVSLQLRGEDGSVWNYKPPADSGGKEIFSLLPHMADMSTYMFKGIISFAKVISYFRDLPIEDQISLLKGAAFELCQLRFNTVFNAETGTWECGRLSYCLEDTAGGFQQLLLEPMLKFHYMLKKLQLHEEEYVLMQAISLFSPDRPGVLQHRVVDQLQEQFAITLKSYIECNRPQPAHRFLFLKIMAMLTELRSINAQHTQRLLRIQDIHPFATPLMQELFGITGS
chain 2: TSSANEDMPVERILEAELAVEPKTETYVEANMGLNPSSPNDPVTNICQAADKQLFTLVEWAKRIPHFSELPLDDQVILLRAGWNELLIASFSHRSIAVKDGILLATGLHVHRNSAHSAGVGAIFDRVLTELVSKMRDMQMDKTELGCLRAIVLFNPDSKGLSNPAEVEALREKVYASLEAYCKHKYPEQPGRFAKLLLRLPALRSIGLKCLEHLFFFKLIGDTPIDTFLMEMLEAPHQMT

Experiments:
PXR [1] = target: T1, PXR; experiment: Medium-throughput screening, HG5LN GAL4-PXR-LBD reporter cell line (HeLa); settings: HG5LN GAL4-PXR reporter cells; 3 µM SR12813 = 100% activation; determined prior to the screening
Text: Using medium-throughput ligand screening and a mammalian (HeLa) cell-based activation assay (HG5LN GAL4-PXR-LBD reporter cell line)[14][15], we monitored the agonistic potential of 40 chemicals either alone or in binary mixtures (Supplementary Table 1). […] We next examined the effect of TNC, EE2, and their combination in human liver (HepG2) and colon (LS174T) carcinoma cell lines containing the full-length PXR and the CYP3A4-XREM luciferase reporter plasmids.
LS174T stable human PXR transfectant (LS-PXR2) and the corresponding control cells (LS-CTRL), HEPG2-PXR and HG5LN GAL4-PXR reporter cell lines were previously described. […] HEPG2-PXR was obtained after stable transfection of the same PXR expressing plasmid and the XREM-CYP3A4 pGL3b reporter plasmid. […] Finally, LS174T-PXR reporter cell line was established by stable transfection of the CYP3A4-luciferase-hygromycine plasmid in the LS-PXR2 cell line. All cell lines were grown in DMEM medium (Invitrogen) supplemented with 10% fetal calf serum, L-glutamine, and antibiotics (Invitrogen).
HG5LN GAL4-PXR reporter cell lines (100 μl) were seeded at a density of 25,000 cells per well in 96-well white opaque tissue culture plates (Greiner CellStar). […] Then the ligand to be tested in combination with the different ligands was added (50 μl). Cells were incubated at 37 °C for 16 h. At the end of the incubation period, culture medium was replaced with medium containing 3.10^−4 M luciferin. Luciferase activity was measured for 2 s in intact living cells using a plate reader (PerkinElmer Luminometer).
Supplementary Table 1 | Compounds used for screening
#For each ligand, the concentration used was determined prior to the screening experiment. It represents the dose at which the
synthetized in the laboratory4. **Compounds purchased from Tocris Biosciences. ***Compounds purchased by Sigma
Aldrich.****Gift from Sanofi Aventis. All compound stock solutions were prepared at 10 mM in DMSO.

PXR [2] = target: T1, PXR; experiment: Transactivation assay (dose-response), HG5LN GAL4-PXR-LBD reporter cells; settings: summary of cell-based assays
Procedure: Compounds to be tested were added 24 h later, and cells were incubated at 37 °C for 16 h. […] EC50 values were measured using GraphPad Prism (GraphPad Software Inc.).

PXR LBD = target: T2, PXR LBD; experiment: Non-denaturing ESI-MS of ligand binding
Procedure: Figure 4 Simultaneous binding of EE2 and TNC to PXR. Mass spectrometry analysis. Non-denaturing ESI-MS was used to characterize PXR LBD (10 μM) in (a) the unliganded form or in the presence of (b) EE2 (20 μM), (c) TNC (20 μM), or (d) a mixture of EE2 (20 μM) and TNC (20 μM). *, acetate adducts; $, fortuitous binders 254-324 Da; , fortuitous binder 254 Da; #, non-specific EE2 adducts. TEXT PRINTED IN THE PICTURE: (b) no label printed: 296.4 Da | (c) no label printed: 444.2 Da | (d) no label printed: 740.6 Da DOUBTS OF THE COPYIST ABOUT THIS PICTURE: Panels b, c and d: the drawn structures have no label of their own. The masses in brackets are printed with no measure word and are taken as molecular masses. / Panel d: 740.6 Da is printed under two drawn structures joined by '+', so it belongs to the pair, not to a single substance. / The peak labels of the mass spectra were left out as spectrum annotations of the protein and its complexes: PXR 38,212.5 Da, Theoretical mass 38,217.7 Da, Δ 297 Da, Δ 445 Da and Δ 740 Da.
Mass spectrometry experiments were carried out on an electrospray time-of-flight mass spectrometer (LCT, Waters) equipped with an automated chip-based nanoESI device (Triversa Nanomate, Advion Biosciences). External calibration was done in the positive ion mode over the mass range m/z 500–5,000 using the multiply charged ions produced by 0.5 μM horse heart myoglobin solution diluted in water/acetonitrile 50/50 mixture acidified with 0.5% (v/v) formic acid. Purified PXR(130-434)-SRC1 was buffer exchanged against 50 mM ammonium acetate (NH4Ac), pH 8.0 using NAP5 desalting columns (illustra NAP-5 Columns, GE Healthcare Life Sciences). Protein concentration was determined spectrophotometrically (ɛ280 nm=26,210 l mol^−1 cm^−1). […] Protein concentration was set to 10 μM and different compound concentrations ranging from 20 to 80 μM were tested. Incubations lasted 5 min at 18 °C. Mass spectra were recorded using low cone voltage (Vc, 20 V) and elevated interface pressure (Pi, 5 mbar).

[3] = target: T3, fluorescein-labelled NR interaction …; experiment: FP; TNC+EE2
[4] = target: T3, fluorescein-labelled NR interaction …; experiment: FP; TNC
[5] = target: T3, fluorescein-labelled NR interaction …; experiment: FP; apo (no ligand)
[6] = target: T3, fluorescein-labelled NR interaction …; experiment: FP; SR12813
[7] = target: T3, fluorescein-labelled NR interaction …; experiment: FP; EE2

Molecule	Concentration: dose at which the compound alone induces ≈30% of the luciferase expression obtained with 3 µM SR12813 (PXR [1]) [nM]	further results
Clc1ccc(C(c2ccccc2Cl)C(Cl)(Cl)Cl)cc1 (stereo not shown) [2,4’DDT]	3000	–
Clc1ccc(C(c2ccc(Cl)cc2)C(Cl)(Cl)Cl)cc1 [4,4’DDT]	3000	–
Cc1ccc(/C=C2/C(=O)C3(C)CCC2C3(C)C)cc1 (stereo not shown) [4-methylbenzylidene camphor]	1000	–
Cc1cc(C(C)(C)C)ccc1O [4-tert-butyl-2-methylphenol]	1000	–
CCCCOC(=O)c1ccccc1C(=O)OCc1ccccc1 [Benzyl butyl phthalate]	1000	–
Clc1ccccc1C(c1ccccc1)(c1ccccc1)n1ccnc1 [Clotrimazol, reference compound]	300	–
CC1(C)C(C=C(Cl)Cl)C1C(=O)OC(C#N)c1cccc(Oc2ccccc2)c1 (stereo not shown) [Cypermethrine]	3000	–
C#C[C@]1(O)CC[C@H]2[C@@H]3CCc4cc(O)ccc4[C@H]3CC[C@@]21C [EE2, 17α-ethinylestradiol, reference compound]	–	PXR agonism, cell-based assays as a whole (PXR [2]): poor PXR agonists; Complex detected (PXR LBD; PXR 10 μM, 2 molar equivalent excess of compound (20 μM)): ~70%; Range of affinity for PXR (PXR LBD; native ESI-MS): low micromolar range
N#Cc1nn(-c2c(Cl)cc(C(F)(F)F)cc2Cl)c(N)c1S(=O)(=O)C(F)(F)F [Fipronil sulfone]	3000	–
CO[C@H]1/C=C/O[C@@]2(C)Oc3c(C)c(O)c4c(O)c(c(/C=N/N5CCN(C)CC5)c(O)c4c3C2=O)NC(=O)/C(C)=C\C=C\[C@H](C)[C@H](O)[C@@H](C)[C@@H](O)[C@@H](C)[C@H](OC(C)=O)[C@@H]1C [Rifampicin, reference compound]	300	–
CC(=O)O[C@H]1C(=O)[C@@]2(C)[C@H]([C@H](OC(=O)c3ccccc3)[C@]3(O)C[C@H](OC(=O)[C@H](O)[C@@H](NC(=O)c4ccccc4)c4ccccc4)C(C)=C1C3(C)C)[C@]1(OC(C)=O)CO[C@@H]1C[C@@H]2O [TAXOL, reference compound]	30	–
Clc1cnc(Oc2ccc(Oc3ncc(Cl)cc3Cl)cc2)c(Cl)c1 [TCPOBOP, reference compound]	1000	–
C[C@H]1CCCC(=O)CCC/C=C/c2cc(O)cc(O)c2C(=O)O1 [Zearalenone]	1000	–
-zearalanol	1000	–
-zearalenol	300	–
B1	–	Kd [3]: 84.5 nM; Kd [4]: 450 nM; Kd [5]: 368 nM; Kd [6]: 93 nM; Kd [7]: 272 nM
